Data taken from US7863289B2, “Compounds and methods for kinase modulation, and indications therefor” (Plexxikon, Inc., priority 2006, dated 2011).

Experiments:
Type in all cases: biochemical
[1] = molecular target: B-Raf (Homo sapiens, UniProt P15056); test: Kinase activity assay, B-Raf; conditions: under the test conditions employed; read-out: activity toward kinase B-Raf, IC50
Excerpt: (§1) Assays for the activity of kinases, including, but not limited to, B-Raf, B-Raf V600E, B-Raf […] and c-Raf-1 are known in the art, for example as described in U.S. patent application Ser. No. 11/473,347 (see Iso, PCT publication WO2007002433), the disclosure of which is hereby incorporated by reference in its entirety.

[2] = molecular target: B-Raf V600E (Homo sapiens, UniProt P15056, V600E); test: Kinase activity assay, B-Raf V600E; conditions: under the test conditions employed; read-out: activity toward kinase B-Raf V600E, IC50
Chain of B-Raf V600E (P15056 whole entry V600E): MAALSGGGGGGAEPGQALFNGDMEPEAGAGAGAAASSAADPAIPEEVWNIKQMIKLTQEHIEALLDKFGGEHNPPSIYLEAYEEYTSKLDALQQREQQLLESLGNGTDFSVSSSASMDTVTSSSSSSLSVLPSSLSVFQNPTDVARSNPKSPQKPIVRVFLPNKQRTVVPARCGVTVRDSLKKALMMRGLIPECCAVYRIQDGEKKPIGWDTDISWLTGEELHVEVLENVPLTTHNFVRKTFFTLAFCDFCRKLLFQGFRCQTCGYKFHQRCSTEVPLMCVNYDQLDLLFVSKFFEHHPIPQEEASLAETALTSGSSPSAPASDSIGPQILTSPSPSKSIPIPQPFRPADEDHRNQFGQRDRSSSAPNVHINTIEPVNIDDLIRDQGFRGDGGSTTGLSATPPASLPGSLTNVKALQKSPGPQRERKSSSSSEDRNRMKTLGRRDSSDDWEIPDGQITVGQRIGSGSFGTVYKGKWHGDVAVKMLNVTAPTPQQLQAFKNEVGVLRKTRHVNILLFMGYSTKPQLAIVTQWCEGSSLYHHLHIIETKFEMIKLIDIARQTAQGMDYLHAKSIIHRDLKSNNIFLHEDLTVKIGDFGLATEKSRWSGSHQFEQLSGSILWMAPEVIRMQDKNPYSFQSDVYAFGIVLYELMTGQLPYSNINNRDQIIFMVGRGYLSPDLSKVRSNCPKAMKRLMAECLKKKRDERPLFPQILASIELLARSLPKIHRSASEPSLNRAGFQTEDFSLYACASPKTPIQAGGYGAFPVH
Excerpt: as §1

[3] = molecular target: Btk (Homo sapiens, UniProt Q06187); test: Kinase activity assay, Btk; conditions: under the test conditions employed; read-out: activity toward kinase Btk, IC50
Excerpt: as §1

[4] = molecular target: c-Raf-1 (Homo sapiens, UniProt P04049); test: Kinase activity assay, c-Raf-1; conditions: under the test conditions employed; read-out: activity toward kinase c-Raf-1, IC50
Chain of c-Raf-1 (P04049 whole entry): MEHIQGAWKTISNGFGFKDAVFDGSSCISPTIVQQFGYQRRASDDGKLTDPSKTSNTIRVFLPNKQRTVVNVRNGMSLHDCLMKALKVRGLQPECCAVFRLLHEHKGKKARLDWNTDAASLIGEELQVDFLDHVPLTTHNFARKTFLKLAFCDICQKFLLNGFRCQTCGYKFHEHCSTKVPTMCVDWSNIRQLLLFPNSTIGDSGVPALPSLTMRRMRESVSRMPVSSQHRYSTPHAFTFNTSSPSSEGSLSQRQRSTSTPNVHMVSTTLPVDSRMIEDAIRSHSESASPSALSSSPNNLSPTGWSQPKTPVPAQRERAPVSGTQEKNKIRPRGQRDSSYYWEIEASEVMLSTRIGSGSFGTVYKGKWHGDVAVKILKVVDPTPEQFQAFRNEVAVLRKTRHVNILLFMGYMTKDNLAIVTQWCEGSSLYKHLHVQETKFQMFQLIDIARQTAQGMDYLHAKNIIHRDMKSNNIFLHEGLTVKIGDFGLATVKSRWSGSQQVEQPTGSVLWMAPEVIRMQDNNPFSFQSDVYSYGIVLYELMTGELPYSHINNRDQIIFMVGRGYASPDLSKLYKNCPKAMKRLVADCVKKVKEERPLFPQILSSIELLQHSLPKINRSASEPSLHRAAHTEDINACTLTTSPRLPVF
Excerpt: as §1

[5] = molecular target: Flt1 (Homo sapiens, UniProt P17948); test: Kinase activity assay, Flt1; conditions: under the test conditions employed; read-out: activity toward kinase Flt1, IC50
Chain of Flt1 (P17948 27-1338): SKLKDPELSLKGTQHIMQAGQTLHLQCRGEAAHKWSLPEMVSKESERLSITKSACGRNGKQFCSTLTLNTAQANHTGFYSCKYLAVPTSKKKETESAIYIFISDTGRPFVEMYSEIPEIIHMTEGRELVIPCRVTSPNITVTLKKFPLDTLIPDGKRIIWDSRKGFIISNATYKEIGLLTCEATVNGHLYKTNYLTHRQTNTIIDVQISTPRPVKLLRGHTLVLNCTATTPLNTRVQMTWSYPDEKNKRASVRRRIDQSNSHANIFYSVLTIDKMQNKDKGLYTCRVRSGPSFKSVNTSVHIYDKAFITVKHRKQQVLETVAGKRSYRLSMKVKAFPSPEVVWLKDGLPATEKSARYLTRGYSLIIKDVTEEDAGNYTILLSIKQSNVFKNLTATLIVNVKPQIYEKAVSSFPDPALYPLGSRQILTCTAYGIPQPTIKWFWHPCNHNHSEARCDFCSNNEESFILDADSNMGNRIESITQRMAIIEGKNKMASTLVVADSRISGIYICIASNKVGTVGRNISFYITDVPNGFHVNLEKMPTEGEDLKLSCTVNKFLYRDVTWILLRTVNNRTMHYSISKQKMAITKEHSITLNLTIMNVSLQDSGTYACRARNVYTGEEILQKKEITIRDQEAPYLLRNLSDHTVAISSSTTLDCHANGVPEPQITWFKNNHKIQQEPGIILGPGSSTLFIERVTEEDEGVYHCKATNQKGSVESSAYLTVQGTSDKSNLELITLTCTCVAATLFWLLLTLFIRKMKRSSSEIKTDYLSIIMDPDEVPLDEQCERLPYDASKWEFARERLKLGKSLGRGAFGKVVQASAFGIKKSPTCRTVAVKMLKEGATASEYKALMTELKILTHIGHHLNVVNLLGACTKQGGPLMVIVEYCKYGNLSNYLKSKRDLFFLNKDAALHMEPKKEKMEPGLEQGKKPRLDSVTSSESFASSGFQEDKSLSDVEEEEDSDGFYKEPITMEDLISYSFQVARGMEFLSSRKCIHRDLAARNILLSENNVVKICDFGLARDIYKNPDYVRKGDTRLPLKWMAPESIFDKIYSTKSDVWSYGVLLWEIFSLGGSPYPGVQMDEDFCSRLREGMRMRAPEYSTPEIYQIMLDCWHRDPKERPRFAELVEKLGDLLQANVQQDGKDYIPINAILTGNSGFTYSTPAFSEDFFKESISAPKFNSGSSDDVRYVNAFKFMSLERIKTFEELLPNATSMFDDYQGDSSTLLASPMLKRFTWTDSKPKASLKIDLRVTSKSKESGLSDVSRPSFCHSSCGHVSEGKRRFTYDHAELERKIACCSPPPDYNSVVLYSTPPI
Excerpt: as §1

[6] = molecular target: Fms (Homo sapiens, UniProt P07333); test: Kinase activity assay, Fms; conditions: under the test conditions employed; read-out: activity toward kinase Fms, IC50
Chain of Fms (P07333 20-972): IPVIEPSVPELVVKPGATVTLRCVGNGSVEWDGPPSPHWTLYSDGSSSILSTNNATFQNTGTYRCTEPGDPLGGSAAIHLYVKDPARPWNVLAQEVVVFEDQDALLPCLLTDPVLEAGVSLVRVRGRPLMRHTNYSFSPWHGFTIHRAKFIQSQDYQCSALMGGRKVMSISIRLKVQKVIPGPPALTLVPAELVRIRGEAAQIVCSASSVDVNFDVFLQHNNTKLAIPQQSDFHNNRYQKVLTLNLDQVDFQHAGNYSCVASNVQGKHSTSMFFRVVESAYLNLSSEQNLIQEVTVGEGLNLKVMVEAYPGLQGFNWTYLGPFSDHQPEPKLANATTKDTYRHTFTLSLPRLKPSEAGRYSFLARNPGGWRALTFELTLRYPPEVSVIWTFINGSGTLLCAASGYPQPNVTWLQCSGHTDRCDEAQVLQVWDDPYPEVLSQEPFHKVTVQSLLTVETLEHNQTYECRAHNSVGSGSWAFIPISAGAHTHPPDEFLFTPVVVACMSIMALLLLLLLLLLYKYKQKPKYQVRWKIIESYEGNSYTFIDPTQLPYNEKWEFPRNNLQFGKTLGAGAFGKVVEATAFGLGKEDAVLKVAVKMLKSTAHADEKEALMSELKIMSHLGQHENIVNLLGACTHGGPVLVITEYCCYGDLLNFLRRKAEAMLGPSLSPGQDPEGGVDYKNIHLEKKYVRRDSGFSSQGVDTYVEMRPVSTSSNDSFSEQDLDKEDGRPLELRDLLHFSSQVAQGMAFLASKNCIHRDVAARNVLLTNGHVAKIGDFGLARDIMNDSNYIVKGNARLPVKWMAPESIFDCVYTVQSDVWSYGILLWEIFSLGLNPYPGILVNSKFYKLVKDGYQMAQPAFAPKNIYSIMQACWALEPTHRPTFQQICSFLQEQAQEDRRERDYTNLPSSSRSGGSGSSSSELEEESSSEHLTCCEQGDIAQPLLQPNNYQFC
Excerpt: as §1

[7] = molecular target: Jnk1 (Homo sapiens, UniProt P45983); test: Kinase activity assay, Jnk1; conditions: under the test conditions employed; read-out: activity toward kinase Jnk1, IC50
Excerpt: as §1

[8] = molecular target: Kdr (Homo sapiens, UniProt P35968); test: Kinase activity assay, Kdr; conditions: under the test conditions employed; read-out: activity toward kinase Kdr, IC50
Excerpt: as §1

[9] = molecular target: Kit (Homo sapiens, UniProt P10721); test: Kinase activity assay, Kit; conditions: under the test conditions employed; read-out: activity toward kinase Kit, IC50
Chain of Kit (P10721 26-976): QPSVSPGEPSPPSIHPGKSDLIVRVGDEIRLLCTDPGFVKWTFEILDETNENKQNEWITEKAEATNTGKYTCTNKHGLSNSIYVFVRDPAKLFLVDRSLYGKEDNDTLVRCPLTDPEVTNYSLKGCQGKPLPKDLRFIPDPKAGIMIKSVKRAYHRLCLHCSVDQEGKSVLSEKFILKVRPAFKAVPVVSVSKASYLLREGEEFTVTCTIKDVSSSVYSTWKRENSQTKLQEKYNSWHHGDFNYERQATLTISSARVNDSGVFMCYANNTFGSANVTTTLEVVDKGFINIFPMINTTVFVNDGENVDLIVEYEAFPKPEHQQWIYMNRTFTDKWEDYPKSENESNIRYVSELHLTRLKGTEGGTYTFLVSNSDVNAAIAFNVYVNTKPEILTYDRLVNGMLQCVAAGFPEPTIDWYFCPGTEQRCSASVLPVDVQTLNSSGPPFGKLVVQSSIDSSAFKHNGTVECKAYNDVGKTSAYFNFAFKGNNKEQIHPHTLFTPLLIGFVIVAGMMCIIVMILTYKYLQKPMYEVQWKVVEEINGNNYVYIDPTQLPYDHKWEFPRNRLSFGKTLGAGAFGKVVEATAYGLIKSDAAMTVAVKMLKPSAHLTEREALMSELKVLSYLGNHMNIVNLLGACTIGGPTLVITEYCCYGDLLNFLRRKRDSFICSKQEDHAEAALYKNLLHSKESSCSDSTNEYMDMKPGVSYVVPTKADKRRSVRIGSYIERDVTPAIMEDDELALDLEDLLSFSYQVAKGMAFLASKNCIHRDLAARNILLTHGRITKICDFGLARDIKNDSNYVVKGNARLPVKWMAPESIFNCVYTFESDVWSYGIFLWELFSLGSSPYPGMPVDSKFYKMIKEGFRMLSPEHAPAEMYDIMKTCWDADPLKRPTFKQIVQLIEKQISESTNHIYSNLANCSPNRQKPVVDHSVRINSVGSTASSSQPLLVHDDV
Excerpt: as §1

[10] = molecular target: Src (Homo sapiens, UniProt P12931); test: Kinase activity assay, Src; conditions: under the test conditions employed; read-out: activity toward kinase Src, IC50
Excerpt: as §1

[11] = molecular target: HGK (Homo sapiens, UniProt O95819); test: Kinase activity assay, HGK; conditions: under the test conditions employed; read-out: activity toward kinase HGK, IC50
Excerpt: as §1

[12] = molecular target: B-Raf V600E/T529I (Homo sapiens, UniProt P15056, T529I/V600E); test: Kinase activity assay, B-Raf V600E/T529I; conditions: under the test conditions employed; read-out: activity toward kinase B-Raf V600E/T529I, IC50
Chain of B-Raf V600E/T529I (P15056 whole entry T529I/V600E): as the sequence (P15056 whole entry V600E) above, with T529I counted along it
Excerpt: as §1

[13] = molecular target: T1, TEC (Homo sapiens, UniProt P42680); test: Kinase activity assay, TEC; conditions: under the test conditions employed; read-out: activity toward kinase TEC, IC50
T1 sequence (P42680 1-631): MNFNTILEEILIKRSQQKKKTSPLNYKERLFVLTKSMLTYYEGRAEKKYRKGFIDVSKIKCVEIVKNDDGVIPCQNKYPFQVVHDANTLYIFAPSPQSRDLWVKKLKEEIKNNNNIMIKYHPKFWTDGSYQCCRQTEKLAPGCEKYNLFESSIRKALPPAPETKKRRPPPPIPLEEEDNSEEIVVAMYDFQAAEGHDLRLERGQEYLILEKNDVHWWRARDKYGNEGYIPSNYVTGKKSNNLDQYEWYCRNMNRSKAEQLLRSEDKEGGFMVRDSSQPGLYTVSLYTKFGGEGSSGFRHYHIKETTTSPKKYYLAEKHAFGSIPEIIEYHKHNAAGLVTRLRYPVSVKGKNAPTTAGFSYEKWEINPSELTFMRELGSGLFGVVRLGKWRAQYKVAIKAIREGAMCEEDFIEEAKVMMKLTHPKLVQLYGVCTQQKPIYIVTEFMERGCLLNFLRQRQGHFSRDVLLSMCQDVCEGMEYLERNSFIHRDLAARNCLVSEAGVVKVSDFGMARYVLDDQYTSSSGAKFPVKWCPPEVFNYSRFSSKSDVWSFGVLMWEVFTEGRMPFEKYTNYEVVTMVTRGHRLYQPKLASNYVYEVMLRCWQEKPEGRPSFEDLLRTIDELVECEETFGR
Excerpt: as §1

Chain of B-Raf (P15056 whole entry): as the sequence (P15056 whole entry V600E) above, with E600V counted along it

Row | SMILES | IC50 [1] [µM] | IC50 [2] [µM] | IC50 [3] [µM] | IC50 [4] [µM] | IC50 [5] [µM] | IC50 [6] [µM] | IC50 [7] [µM] | IC50 [8] [µM] | IC50 [9] [µM] | IC50 [10] [µM] | IC50 [11] [µM] | IC50 [12] [µM] | IC50 [13] [µM]
1 | Cn1cc(-c2cnc3[nH]cc(C(=O)c4c(F)ccc(NS(=O)(=O)c5cccc(OC(F)F)c5)c4F)c3c2)cn1 [Compound P-0020] | ≤ 10 | ≤ 10 | ≤ 10 | ≤ 10 | ≤ 10 | ≤ 10 | ≤ 10 | ≤ 10 | ≤ 10 | ≤ 10 | ≤ 10 | – | –
2 | O=C(c1c(F)ccc(NS(=O)(=O)c2ccc(-c3cnco3)s2)c1F)c1c[nH]c2ncc(Cl)cc12 [Compound P-0003, 5-Oxazol-5-yl-thiophene-2-sulfonic acid [3-(5-chloro-1H-pyrrolo[2,3-b]pyridine-3-carbonyl)-2,4-difluoro-phenyl]-amide] | ≤ 10 | ≤ 10 | – | ≤ 10 | – | ≤ 10 | – | ≤ 10 | ≤ 10 | ≤ 10 | – | ≤ 10 | –
3 | O=C(c1c(F)ccc(NS(=O)(=O)c2ccc(-c3ccno3)s2)c1F)c1c[nH]c2ncc(Cl)cc12 [Compound P-0006, 5-Isoxazol-5-yl-thiophene-2-sulfonic acid [3-(5-chloro-1H-pyrrolo[2,3-b]pyridine-3-carbonyl)-2,4-difluoro-phenyl]-amide] | ≤ 10 | ≤ 10 | – | ≤ 10 | – | ≤ 10 | – | – | ≤ 10 | ≤ 10 | – | ≤ 10 | –
4 | O=C(c1c(F)ccc(NS(=O)(=O)c2ccc3nsnc3c2)c1F)c1c[nH]c2ncc(Cl)cc12 [Compound P-0013, Benzo[1,2,5]thiadiazoe-5-sulfonic acid [3-(5-chloro-1H-pyrrolo[2,3-b]pyridine-3-carbonyl)-2,4-difluoro-phenyl]-amide] | ≤ 10 | ≤ 10 | ≤ 10 | ≤ 10 | – | ≤ 10 | – | ≤ 10 | ≤ 10 | ≤ 10 | – | – | –
5 | O=C(c1c(F)ccc(NS(=O)(=O)c2ccc3oc(=O)ccc3c2)c1F)c1c[nH]c2ncc(Cl)cc12 [Compound P-0005, 2-Oxo-2H-chromene-6-sulfonic acid [3-(5-chloro-1H-pyrrolo[2,3-b]pyridine-3-carbonyl)-2,4-difluoro-phenyl]-amide] | ≤ 10 | ≤ 10 | – | ≤ 10 | – | ≤ 10 | – | ≤ 10 | ≤ 10 | ≤ 10 | – | ≤ 10 | –
6 | O=C(c1c(F)ccc(NS(=O)(=O)c2cccc(OC(F)F)c2)c1F)c1c[nH]c2ncc(Cl)cc12 [Compound P-0016, N-[3-(5-Chloro-1H-pyrrolo[2,3-b]pyridine-3-carbonyl)-2,4-difluoro-phenyl]-3-difluoromethoxy-benzenesulfonamide] | ≤ 10 | ≤ 10 | – | ≤ 10 | ≤ 10 | ≤ 10 | – | ≤ 10 | ≤ 10 | ≤ 10 | – | – | ≤ 10
7 | CCCc1ccc(S(=O)(=O)Nc2ccc(F)c(C(=O)c3c[nH]c4ncc(-c5cnn(C)c5)cc34)c2F)cc1 [Compound P-0021, N-{2,4-Difluoro-3-[5-(1-methyl-1H-pyrazol-4-yl)-1H-pyrrolo[2,3-b]pyridine-3-carbonyl]-phenyl}-4-propyl-benzenesulfonamide] | ≤ 10 | ≤ 10 | ≤ 10 | ≤ 10 | – | ≤ 10 | – | ≤ 10 | ≤ 10 | ≤ 10 | – | – | –

Further lines, results first:

Row | IC50 [1] [µM] | IC50 [2] [µM] | IC50 [3] [µM] | IC50 [4] [µM] | IC50 [5] [µM] | IC50 [6] [µM] | IC50 [7] [µM] | IC50 [8] [µM] | IC50 [9] [µM] | IC50 [10] [µM] | IC50 [11] [µM] | IC50 [12] [µM] | IC50 [13] [µM] | SMILES
8 | ≤ 10 | ≤ 10 | ≤ 10 | ≤ 10 | – | ≤ 10 | – | ≤ 10 | ≤ 10 | ≤ 10 | – | – | – | CCCc1ccc(S(=O)(=O)Nc2ccc(F)c(C(=O)c3c[nH]c4ncc(-c5ncc(C)[nH]5)cc34)c2F)cc1 [Compound P-0023, N-{2,4-Difluoro-3-[5-(5-methyl-1H-imidazol-2-yl)-1H-pyrrolo[2,3-b]pyridine-3-carbonyl]-phenyl}-4-propyl-benzenesulfonamide]
9 | ≤ 10 | ≤ 10 | – | ≤ 10 | – | – | ≤ 10 | ≤ 10 | ≤ 10 | ≤ 10 | – | – | – | Cc1c[nH]c(-c2cnc3[nH]cc(C(=O)c4c(F)ccc(NS(=O)(=O)c5ccc(C(C)C)cc5)c4F)c3c2)n1 [Compound P-0019, N-{2,4-Difluoro-3-[5-(4-methyl-1H-imidazol-2-yl)-1H-pyrrolo[2,3-b]pyridine-3-carbonyl]-phenyl}-4-isopropyl-benzenesulfonamide]
10 | ≤ 10 | ≤ 10 | ≤ 10 | ≤ 10 | – | ≤ 10 | – | ≤ 10 | ≤ 10 | ≤ 10 | – | – | – | CC(C)c1ccc(S(=O)(=O)Nc2ccc(F)c(C(=O)c3c[nH]c4ncc(-c5cnn(C)c5)cc34)c2F)cc1 [Compound P-0022, N-{2,4-Difluoro-3-[5-(1-methyl-1H-pyrazol-4-yl)-1H-pyrrolo[2,3-b]pyridine-3-carbonyl]-phenyl}-4-isopropyl-benzenesulfonamide]
11 | ≤ 10 | ≤ 10 | ≤ 10 | – | – | ≤ 10 | – | ≤ 10 | ≤ 10 | ≤ 10 | – | – | – | Cc1cnc(-c2cnc3[nH]cc(C(=O)c4c(F)ccc(NS(=O)(=O)c5cccc(OC(F)F)c5)c4F)c3c2)[nH]1 [Compound P-0024, 3-Difluoromethoxy-N-{2,4-difluoro-3-[5-(5-methyl-1H-imidazol-2-yl)-1H-pyrrolo[2,3-b]pyridine-3-carbonyl]-phenyl}-benzenesulfonamide]
12 | ≤ 10 | ≤ 10 | – | ≤ 10 | ≤ 10 | – | – | – | – | ≤ 10 | – | – | – | N#Cc1cnc2[nH]cc(C(=O)c3c(F)ccc(NS(=O)(=O)c4ccc(C(F)(F)F)cc4)c3F)c2c1 [Compound P-0031, N-[3-(5-Cyano-1H-pyrrolo[2,3-b]pyridine-3-carbonyl)-2,4-difluoro-phenyl]-4-trifluoromethyl-benzenesulfonamide]
13 | ≤ 10 | ≤ 10 | – | ≤ 10 | ≤ 10 | – | ≤ 10 | ≤ 10 | ≤ 10 | ≤ 10 | – | – | – | Cc1cnc(-c2cnc3[nH]cc(C(=O)c4c(F)ccc(NS(=O)(=O)c5ccc(C(F)(F)F)cc5)c4F)c3c2)[nH]1 [Compound P-0025, N-{2,4-Difluoro-3-[5-(5-methyl-1H-imidazol-2-yl)-1H-pyrrolo[2,3-b]pyridine-3-carbonyl]-phenyl}-4-trifluoromethyl-benzenesulfonamide]
14 | ≤ 10 | – | – | – | ≤ 10 | – | – | ≤ 10 | ≤ 10 | ≤ 10 | – | – | – | CCCc1ccc(S(=O)(=O)Nc2ccc(F)c(C(=O)c3c[nH]c4ncc(-c5nccn5C)cc34)c2F)cc1 [Compound P-0026, N-{2,4-Difluoro-3-[5-(1-methyl-1H-imidazol-2-yl)-1H-pyrrolo[2,3-b]pyridine-3-carbonyl]-phenyl}-4-propyl-benzenesulfonamide]
